{
  "source": "patent US20080299076A1",
  "about": "“Compunds and compositions that cause non-apoptotic cell death and uses thereof” (priority 2006, published 2008)",
  "key": {"[1]": {"tested_on": "BJ-TERT/LT/ST/RAS^V12 cells", "experiment": "Suppression of erastin-induced cell death (suppressor screen and follow-up)", "format": "cell-based, human", "settings": "co-treatment with erastin"}, "VDAC2": {"biological_target": "T1, VDAC2 (Homo sapiens, UniProt P45880)", "T1 construct": "hexahistidine (pET-15b, thrombin site) (N); made in house; host or cells: E. coli", "T1 sequence (P45880 1-294)": "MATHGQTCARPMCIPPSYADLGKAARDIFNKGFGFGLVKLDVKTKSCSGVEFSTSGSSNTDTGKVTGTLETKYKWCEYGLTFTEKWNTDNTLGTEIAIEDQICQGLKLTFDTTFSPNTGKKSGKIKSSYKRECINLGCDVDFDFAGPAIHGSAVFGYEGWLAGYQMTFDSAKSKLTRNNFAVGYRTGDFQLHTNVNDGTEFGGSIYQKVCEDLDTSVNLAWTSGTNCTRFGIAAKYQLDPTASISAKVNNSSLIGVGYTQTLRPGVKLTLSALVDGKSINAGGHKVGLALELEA", "experiment": "VDAC2 binding assay (competition with radiolabelled erastin A9)", "settings": "competition with tritium-labeled erastin A9", "experimental": "Given the interactions between erastin and VDAC using affinity-based target identification and VDAC functional assays, the direct binding of erastin to VDACs was investigated.\nVDAC2 protein was isolated from E. coli using a modified version of the protocol originally described by Koppel et al. Bacterial cultures were grown in LB containing 50 mg/L ampicillin to an OD of 0.6, and induced using […] IPTG overnight. Cultures were harvested by centrifugation at 6000×g for 10 min. The pellet was then washed with dH2O and resuspended in buffer (20% sucrose, 20 mM Tris, pH 8.0, […] lysozyme) and incubated at 25° C. for 10 minutes. The lysate was then sonicated for 2×30 seconds and centrifuged at 15000×g for 20 minutes. The pellet was resuspended in resuspension buffer (4.5 M guanidine-HCl, 0.1M NaCl, 20 mM Tris, pH 8.0) and incubated for 1 hour at 25° C. The suspension was then centrifuged (20 minutes, 15000×g), and the supernatant was loaded on a NI-NTA Superflow column (Qiagen) pre-equilibrated with 5 volumes of resuspension buffer. The column was washed with 5 column volumes of resuspension buffer containing 10 mM imidazole. The protein was then eluted using resuspension buffer containing 225 mM imidazole. The eluate was dialysed against 0.1 M NaCl, 20 mM Tris, pH 8.0, and 2% LDAO (Fluka) overnight, and then concentrated via centrifugation to 4 mg/mL.\nTo assay direct binding of erastin analogs, 40 μg of purified VDAC2 was resuspended in 100 μL of Binding Buffer (25 mM HEPES, pH 8.0, 0.1% BSA, 7 mM MgCl2, 15 mM NaCl), and incubated in the presence of 20 μM radiolabelled erastin A9 and erastin A9 or erastin A8 for 15 minutes. The mixture was then deposited onto Protran BA85 0.45 μM binding filters (Whatman) using vacuum filtration. The filter was rinsed 5 times with 1 mL wash buffer (25 mM HEPES, 0.1% BSA), and then incubated in 5 mL scintillation liquid (Cytoscint, MP Biomedicals). Radioactivity was detected on a LKB Wallac 1211 RACKBETA Liquid Scintillation Counter."}, "[2]": {"tested_on": "BJ-TERT/LT/ST/RAS^V12 cells", "experiment": "Alamar Blue viability assay", "format": "cell-based, human", "settings": "for IC50: BJ-TERT/LT/ST/RAS^V12 (BJELR) cells, read-out: IC50 (lethality); for Selective lethality / activity of erastin analog: BJ-TERT/LT/ST/RAS^V12 cells versus BJ-TERT cells", "experimental": "(a) Calu-1 lung carcinoma cells harboring oncogenic KRAS were infected with lentivirus containing shRNAs targeting KRAS or GFP. Sequences of shRNAs are indicated by starting nucleotide (nt) in the KRAS mRNA coding sequence. Cells were treated with erastin and viability measured by Trypan Blue exclusion. (b) Knockdown of KRAS was confirmed by western blot. (c,d) A673 cells harboring oncogenic BRAF were infected with lentiviral shRNAs targeting BRAF exon 5 (c) or the 5′ UTR (d), luciferase (LUC) (c) or GFP (d). Cells were treated with erastin and viability measured using Alamar Blue (c) and Trypan Blue (d). (e) Knockdown of BRAF was confirmed by western blot. […] BJ-TERT/LT/ST/RAS^V12 cells were treated with erastin alone or in with a MEK inhibitor U0126 (20 μM), MEK inhibitor I (10 μM) or MEK 1/2 inhibitor (50 μM). After 48 h, viability was determined using Trypan Blue. (g) Structures of certain erastin and related analogs. (h) and (i) Dose-response curves were measured for erastin A3 and erastin B2 in BJ-TERT/LT/ST/RAS^V12 cells (black squares) or BJ-TERT cells (grey circles). (j) Calu-1 lung carcinoma cells harboring oncogenic KRAS were infected with lentivirus containing shRNAs targeting KRAS or GFP. Sequences of shRNAs are indicated by starting nucleotide (nt) in the KRAS mRNA coding sequence. Cells were treated with erastin and viability (y-axis) measured by Trypan Blue exclusion. Cells were treated with erastin for 24 hours, and percent inhibition of viability (y-axis) measured using Alamar Blue (k) and Trypan Blue (l). (m) Structures of erastin and related analogs. (n) Dose-response curves were measured for erastin A6, erastin B2, erastin A8 and erastin A9 in BJ-TERT/LT/ST/RAS^V12 cells (squares) or BJ-TERT cells (circles) using Alamar Blue.\nAlamar Blue metabolism: 10% Alamar Blue was added to assay plates, which were then incubated for an additional 16 hours. Red fluorescence, resulting from reduction of Alamar Blue, was detected on a Victor3 platereader (ex: 530, em: 590).\nTable 2. Activity of RAS-selective lethal compound erastin in tumor cell lines. IC50 values (ng/mL) are shown using the Alamar Blue viability assay. BJ engineered tumor cells express TERT, LT, ST, and oncogenic RAS. Isogenic RAS^V12 lacking cells are identical but lack HRAS^V12. BJ-DRD cells are derived from BJ cells and contain TERT, oncogenic RAS, a truncated from of p53 (p53DD) that disrupts the tetramerization of endogenous p53, a CDK4(R24C) mutant resistant to inhibition by p16INK4A and p151NK4B (the major negative regulators of CDK4) and cyclin D1. These latter protein substitute for LT. HCT-116, A549, Calu-1, and MIA PaCa-2 are tumor cells derived from cancers (colon, lung, lung and pancreatic, respectively) known to have activating mutations in RAS."}, "CCRF-CEM parental cells": {"tested_on": "CCRF-CEM parental cells", "experiment": "Cell death in taxol/vinblastine resistance panel", "format": "cell-based", "settings": "Homo sapiens", "experimental": "(§1) In certain embodiments, the sensitivity to erastin, can be tested in cell lines that are resistant to taxol and vinblastine. The sensitivity of CCRF-CEM parental, and taxol and vinblastine resistant derivative cells to erastin was tested. […] Erastin analogues can be tested to ensure their effectiveness in inducing cell death in tumor cell line which are resistant to taxol or vinblastin, or other ant-tumor agents."}, "[3]": {"tested_on": "taxol resistant CCRF-CEM derivative cells", "experiment": "Cell death in taxol/vinblastine resistance panel", "format": "cell-based", "settings": "Homo sapiens", "experimental": "as §1"}, "[4]": {"tested_on": "vinblastine resistant CCRF-CEM derivative cells", "experiment": "Cell death in taxol/vinblastine resistance panel", "format": "cell-based", "settings": "Homo sapiens", "experimental": "as §1"}},
  "note": "“Also recorded” adds a separate entry of the source. Read-outs that look alike come from different tables or passages of the source.",
  "data": [
    {"smiles": "CC(C)(Oc1ccc(C2CC2(Cl)Cl)cc1)C(=O)O", "note": "(centres unmarked) [ciprofibrate]", "values": [
      {"measurement": "Effect on erastin-induced cell death", "setting": "[1]", "value": "did not affect erastin-induced cell death"}
    ]},
    {"smiles": "CCOc1ccccc1-n1c(C(C)N2CCN(C(=O)COc3ccc(Cl)cc3)CC2)nc2cc(NC(C)=O)ccc2c1=O", "note": "(centres unmarked) [erastin A9, N-[2-(1-{4-[2-(4-chloro-phenoxy)-acetyl]-piperazin-1-yl}-ethyl)-3-(2-ethoxy-phenyl)-4-oxo-3,4-dihydro-quinazolin-7-yl]-acetamide]", "values": [
      {"measurement": "Direct binding to VDAC2", "setting": "VDAC2", "value": "directly binds VDAC2"},
      {"measurement": "Kd", "setting": "VDAC2", "value": 112, "unit": "nM"},
      {"measurement": "IC50", "setting": "[2]; Homo sapiens", "value": 1900, "unit": "nM"}
    ]},
    {"smiles": "Cn1cnc(N)c2ncnc1-2", "note": "[3-methyladenine]", "values": [
      {"measurement": "Effect on erastin-induced cell death", "setting": "[1]", "value": "not suppressed"}
    ]},
    {"smiles": "CC(C)NC(=O)N(CCN1CCN(C(=O)COc2ccc(Cl)cc2)CC1)Cc1ccc(CN)cc1", "note": "[erastin B2, 1-(4-Aminomethyl-benzyl)-1-(2-{4-[2-(4-chloro-phenoxy)-acetyl]-piperazin-1-yl}-ethyl)-3-isopropyl-urea]", "values": [
      {"measurement": "Selective lethality / activity of erastin analog", "setting": "[2]", "value": "lacking activity in cells; also recorded: lacks activity"},
      {"measurement": "IC50", "setting": "[2]; Homo sapiens", "value": "> 50000", "unit": "nM"}
    ]},
    {"smiles": "CC(=O)O[C@H]1C(=O)[C@@]2(C)[C@H]([C@H](OC(=O)c3ccccc3)[C@]3(O)C[C@H](OC(=O)[C@H](O)[C@@H](NC(=O)c4ccccc4)c4ccccc4)C(C)=C1C3(C)C)[C@]1(OC(C)=O)CO[C@@H]1C[C@@H]2O", "note": "[taxol]", "values": [
      {"measurement": "IC50", "setting": "CCRF-CEM parental cells", "value": 1, "unit": "nM"},
      {"measurement": "IC50", "setting": "[3]", "value": 560, "unit": "nM"},
      {"measurement": "IC50", "setting": "[4]", "value": 1380, "unit": "nM"}
    ]},
    {"smiles": "CC1=C(/C=C/C(C)=C/C=C/C(C)=C/C=C/C=C(C)/C=C/C=C(C)/C=C/C2=C(C)CCCC2(C)C)C(C)(C)CCC1", "note": "[beta-carotene]", "values": [
      {"measurement": "Effect on erastin-induced cell death", "setting": "[1]", "value": "prevented erastin-induced death"}
    ]},
    {"smiles": "Oc1ncnc2[nH]ncc12", "note": "[allopurinol]", "values": [
      {"measurement": "Effect on erastin-induced cell death", "setting": "[1]", "value": "did not affect erastin-induced cell death"}
    ]},
    {"smiles": "C[C@@H]1C[C@@H]([C@H](O)CC2CC(=O)NC(=O)C2)C(=O)[C@@H](C)C1", "note": "[cyclohexamide]", "values": [
      {"measurement": "Effect on erastin-induced cell death", "setting": "[1]", "value": "suppressed"}
    ]},
    {"smiles": "CCOc1ccccc1-n1c(C(C)N2CCN(C(=O)COc3ccc(CN)cc3)CC2)nc2ccccc2c1=O", "note": "(centres unmarked) [erastin A3]", "values": [
      {"measurement": "IC50", "setting": "[2]", "value": 25000, "unit": "nM"},
      {"measurement": "Selective lethality / activity of erastin analog", "setting": "[2]", "value": "retained the ability to selectively kill BJ-TERT/LT/ST/RAS^V12 cells; also recorded: retained the ability to kill BJ-TERT/LT/ST/RAS^V12 cells but not BJ-TERT cells"}
    ]},
    {"smiles": "CCOc1ccccc1-n1c(C(C)N2CCN(C(=O)COc3ccc(CN)cc3)CC2)nc2ccccc2c1=O", "note": "(centres unmarked) [erastin A6, 2-(1-{4-[2-(4-Aminomethyl-phenoxy)-acetyl]-piperazin-1-yl}-ethyl)-3-(2-ethoxy-phenyl)-3H-quinazolin-4-one]", "values": [
      {"measurement": "Selective lethality / activity of erastin analog", "setting": "[2]; listed as ERA-A6", "value": "selectively lethal to RAS^V12-expressing cells"}
    ]},
    {"smiles": "CC(C)NC(=O)N(CCN1CCN(C(=O)COc2ccc(Cl)cc2)CC1)Cc1ccc(F)cc1", "note": "[erastin B1]", "values": [
      {"measurement": "IC50", "setting": "[2]", "value": 10000, "unit": "nM"},
      {"measurement": "Selective lethality / activity of erastin analog", "setting": "[2]", "value": "inactive"}
    ]},
    {"smiles": "O=c1[nH]c(=O)c2c[nH]nc2[nH]1", "note": "[oxypurinol]", "values": [
      {"measurement": "Effect on erastin-induced cell death", "setting": "[1]", "value": "did not affect erastin-induced cell death"}
    ]},
    {"smiles": "Cc1c(C)c2c(c(C)c1O)CC[C@@](C)(CCC[C@H](C)CCC[C@H](C)CCCC(C)C)O2", "note": "[alpha-tocopherol]", "values": [
      {"measurement": "Effect on erastin-induced cell death", "setting": "[1]", "value": "prevented erastin-induced death"}
    ]},
    {"smiles": "Cc1cc(C(C)(C)C)c(O)c(C(C)(C)C)c1", "note": "[butylated hydroxytoluene]", "values": [
      {"measurement": "Effect on erastin-induced cell death", "setting": "[1]", "value": "prevented erastin-induced death"}
    ]},
    {"smiles": "CC[C@]1(O)C[C@@H]2CN(CCc3c([nH]c4ccccc34)[C@@](C(=O)OC)(c3cc4c(cc3OC)N(C)[C@H]3[C@@](O)(C(=O)OC)[C@H](OC(C)=O)[C@]5(CC)C=CCN6CC[C@]43[C@@H]65)C2)C1", "note": "[vinblastine]", "values": [
      {"measurement": "IC50", "setting": "CCRF-CEM parental cells", "value": 1, "unit": "nM"},
      {"measurement": "IC50", "setting": "[3]", "value": 93, "unit": "nM"},
      {"measurement": "IC50", "setting": "[4]", "value": 370, "unit": "nM"}
    ]},
    {"smiles": "COC(=O)CC(NC(=O)OC(C)(C)C)C(=O)CF", "note": "(centres unmarked) [Boc-Asp(Ome)-fluoromethyl ketone]", "values": [
      {"measurement": "Effect on erastin-induced cell death", "setting": "[1]", "value": "does not block cell death induced by erastin"}
    ]},
    {"smiles": "COc1ccc2[nH]cc(CCNC(C)=O)c2c1", "note": "[melatonin]", "values": [
      {"measurement": "Effect on erastin-induced cell death", "setting": "[1]", "value": "did not affect erastin-induced cell death"}
    ]}
  ]
}
